Columns and labels:
Experiment in all cases: relative viability (nuclei count vs DMSO), 5 days (fraction); higher = more cells survive
BAM7 + Olaparib = compound: CCOC1=CC=CC=C1N=NC2=C(NN(C2=O)C3=NC(=CS3)C4=CC=CC=C4)C [BAM7] + O=C(c1cc(Cc2n[nH]c(=O)c3ccccc23)ccc1F)N1CCN(C(=O)C2CC2)CC1 [Olaparib] (partner 8 µM)
How it was run: (§1)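 Lung cancer cell lines were seeded in 1536-well plates and dosed by pin tool the next day, with either a single drug or a fixed anchor-drug dose combined with five library-drug doses (not always all listed) spaced in √10 steps. Five days later, one step fixed the cells and stained their nuclei (final 0.05% Triton X-100, 1% formaldehyde, 1 ug/ml Hoechst), and nuclei were counted on 4× images. Relative viability is the nuclei count in treated wells divided by the count in vehicle wells, and each value is the median of duplicate plates.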

BAM7 + Pemetrexed = compound: CCOC1=CC=CC=C1N=NC2=C(NN(C2=O)C3=NC(=CS3)C4=CC=CC=C4)C [BAM7] + Nc1nc2[nH]cc(CCc3ccc(C(=O)N[C@@H](CCC(=O)O)C(=O)O)cc3)c2c(=O)[nH]1 [Pemetrexed] (partner 0.2 µM)
How it was run: as §1

[1] = compound: CCn1c(-c2nonc2N)nc2c(C#CC(C)(C)O)ncc(OC[C@H]3CCCNC3)c21 + O=C(CCCCCCC(=O)Nc1ccccc1)NO [Vorinostat] (partner 1 µM)
How it was run: as §1

[2] = compound: CCn1c(-c2nonc2N)nc2c(C#CC(C)(C)O)ncc(OC[C@H]3CCCNC3)c21 + CS(=O)(=O)N1CCN(Cc2cc3nc(-c4cccc5[nH]ncc45)nc(N4CCOCC4)c3s2)CC1 [Pictilisib] (partner 1 µM)
How it was run: as §1

For HCC-827, the relative viability (BAM7 + Olaparib; first compound 0.5 µM) was 0.0377, the relative viability (BAM7 + Olaparib; first compound 5 µM) was 0.627 and the relative viability (BAM7 + Olaparib; first compound 15.81 µM) was 0.62. For the same cell line, the relative viability (BAM7 + Olaparib; first compound 50 µM) was 0.649, the relative viability (BAM7 + Pemetrexed; first compound 0.5 µM) was 0.27 and the relative viability (BAM7 + Pemetrexed; first compound 5 µM) was 0.25. For the same cell line, the relative viability (BAM7 + Pemetrexed; first compound 15.81 µM) was 0.28, the relative viability (BAM7 + Pemetrexed; first compound 50 µM) was 0.247 and the relative viability ([1]; first compound 0.01 µM) was 0.86. It also gave a relative viability ([1]; first compound 0.03162 µM) of 0.866, a relative viability ([1]; first compound 0.1 µM) of 0.831 and a relative viability ([1]; first compound 0.3162 µM) of 0.76. For the same cell line, the relative viability ([1]; first compound 1 µM) was 0.834, the relative viability ([2]; first compound 0.01 µM) was 1.18 and the relative viability ([2]; first compound 0.03162 µM) was 0.966. For the same cell line, the relative viability ([2]; first compound 0.1 µM) was 0.865, the relative viability ([2]; first compound 0.3162 µM) was 0.916 and the relative viability ([2]; first compound 1 µM) was 1.19.

HOP-62 showed a relative viability (BAM7 + Olaparib; first compound 0.5 µM) of 0.517, a relative viability (BAM7 + Olaparib; first compound 5 µM) of 0.33 and a relative viability (BAM7 + Olaparib; first compound 15.81 µM) of 0.449. The relative viability (BAM7 + Olaparib; first compound 50 µM) was 0.518, the relative viability (BAM7 + Pemetrexed; first compound 0.5 µM) was 0.269 and the relative viability (BAM7 + Pemetrexed; first compound 5 µM) was 0.356. It also gave a relative viability (BAM7 + Pemetrexed; first compound 15.81 µM) of 0.328, a relative viability (BAM7 + Pemetrexed; first compound 50 µM) of 0.371 and a relative viability ([1]; first compound 0.01 µM) of 0.635. It also gave a relative viability ([1]; first compound 0.03162 µM) of 0.688, a relative viability ([1]; first compound 0.1 µM) of 0.644 and a relative viability ([1]; first compound 0.3162 µM) of 0.555. The relative viability ([1]; first compound 1 µM) was 0.644, the relative viability ([2]; first compound 0.01 µM) was 0.688 and the relative viability ([2]; first compound 0.03162 µM) was 0.75. For the same cell line, the relative viability ([2]; first compound 0.1 µM) was 0.703, the relative viability ([2]; first compound 0.3162 µM) was 0.843 and the relative viability ([2]; first compound 1 µM) was 0.794.

With IA-LM the relative viability (BAM7 + Olaparib; first compound 0.5 µM) was 0.912, the relative viability (BAM7 + Olaparib; first compound 5 µM) was 0.794 and the relative viability (BAM7 + Olaparib; first compound 15.81 µM) was 0.797. For the same cell line, the relative viability (BAM7 + Olaparib; first compound 50 µM) was 0.775, the relative viability ([1]; first compound 0.01 µM) was 1.04 and the relative viability ([1]; first compound 0.03162 µM) was 0.961. For the same cell line, the relative viability ([1]; first compound 0.1 µM) was 0.953, the relative viability ([1]; first compound 0.3162 µM) was 0.859 and the relative viability ([1]; first compound 1 µM) was 1. The relative viability ([2]; first compound 0.01 µM) was 0.355, the relative viability ([2]; first compound 0.03162 µM) was 0.316 and the relative viability ([2]; first compound 0.1 µM) was 0.276. For the same cell line, the relative viability ([2]; first compound 0.3162 µM) was 0.26 and the relative viability ([2]; first compound 1 µM) was 0.168.

With LC-2-ad the relative viability (BAM7 + Olaparib; first compound 0.5 µM) was 0.676, the relative viability (BAM7 + Olaparib; first compound 5 µM) was 0.633 and the relative viability (BAM7 + Olaparib; first compound 15.81 µM) was 0.634. For the same cell line, the relative viability (BAM7 + Olaparib; first compound 50 µM) was 0.646, the relative viability (BAM7 + Pemetrexed; first compound 0.5 µM) was 0.297 and the relative viability (BAM7 + Pemetrexed; first compound 5 µM) was 0.277. It also gave a relative viability (BAM7 + Pemetrexed; first compound 15.81 µM) of 0.293, a relative viability (BAM7 + Pemetrexed; first compound 50 µM) of 0.29 and a relative viability ([1]; first compound 0.01 µM) of 0.736. It also gave a relative viability ([1]; first compound 0.03162 µM) of 0.715, a relative viability ([1]; first compound 0.1 µM) of 0.712 and a relative viability ([1]; first compound 0.3162 µM) of 0.659. It also gave a relative viability ([1]; first compound 1 µM) of 0.69, a relative viability ([2]; first compound 0.01 µM) of 0.303 and a relative viability ([2]; first compound 0.03162 µM) of 0.507. For the same cell line, the relative viability ([2]; first compound 0.1 µM) was 0.505, the relative viability ([2]; first compound 0.3162 µM) was 0.385 and the relative viability ([2]; first compound 1 µM) was 0.397.

LCLC-97TM1 was tested, and the relative viability (BAM7 + Olaparib; first compound 0.5 µM) was 0.362, the relative viability (BAM7 + Olaparib; first compound 5 µM) was 0.472 and the relative viability (BAM7 + Olaparib; first compound 50 µM) was 0.432. For the same cell line, the relative viability (BAM7 + Pemetrexed; first compound 0.5 µM) was 0.19, the relative viability (BAM7 + Pemetrexed; first compound 5 µM) was 0.147 and the relative viability (BAM7 + Pemetrexed; first compound 50 µM) was 0.159. For the same cell line, the relative viability ([1]; first compound 0.01 µM) was 0.8, the relative viability ([1]; first compound 0.03162 µM) was 0.722 and the relative viability ([1]; first compound 0.1 µM) was 0.774. The relative viability ([1]; first compound 0.3162 µM) was 0.624, the relative viability ([1]; first compound 1 µM) was 0.664 and the relative viability ([2]; first compound 0.03162 µM) was 0.208. For the same cell line, the relative viability ([2]; first compound 0.1 µM) was 0.231, the relative viability ([2]; first compound 0.3162 µM) was 0.21 and the relative viability ([2]; first compound 1 µM) was 0.158.

LCLC-103H showed a relative viability (BAM7 + Olaparib; first compound 0.5 µM) of 0.77, a relative viability (BAM7 + Olaparib; first compound 5 µM) of 0.795 and a relative viability (BAM7 + Olaparib; first compound 15.81 µM) of 0.72. The relative viability (BAM7 + Olaparib; first compound 50 µM) was 0.686, the relative viability (BAM7 + Pemetrexed; first compound 0.5 µM) was 0.524 and the relative viability (BAM7 + Pemetrexed; first compound 5 µM) was 0.491. It also gave a relative viability (BAM7 + Pemetrexed; first compound 15.81 µM) of 0.487, a relative viability (BAM7 + Pemetrexed; first compound 50 µM) of 0.444 and a relative viability ([1]; first compound 0.01 µM) of 0.87. The relative viability ([1]; first compound 0.03162 µM) was 0.752, the relative viability ([1]; first compound 0.1 µM) was 0.725 and the relative viability ([1]; first compound 0.3162 µM) was 0.757. The relative viability ([1]; first compound 1 µM) was 0.81, the relative viability ([2]; first compound 0.01 µM) was 0.591 and the relative viability ([2]; first compound 0.03162 µM) was 0.59. It also gave a relative viability ([2]; first compound 0.1 µM) of 0.527, a relative viability ([2]; first compound 0.3162 µM) of 0.622 and a relative viability ([2]; first compound 1 µM) of 0.625.

For LK-2, the relative viability (BAM7 + Olaparib; first compound 0.5 µM) was 0.885, the relative viability (BAM7 + Olaparib; first compound 5 µM) was 0.891 and the relative viability (BAM7 + Olaparib; first compound 15.81 µM) was 0.918. The relative viability (BAM7 + Olaparib; first compound 50 µM) was 0.666, the relative viability (BAM7 + Pemetrexed; first compound 0.5 µM) was 0.277 and the relative viability (BAM7 + Pemetrexed; first compound 5 µM) was 0.249. It also gave a relative viability (BAM7 + Pemetrexed; first compound 15.81 µM) of 0.32, a relative viability (BAM7 + Pemetrexed; first compound 50 µM) of 0.266 and a relative viability ([1]; first compound 0.01 µM) of 0.239. It also gave a relative viability ([1]; first compound 0.03162 µM) of 0.291, a relative viability ([1]; first compound 0.1 µM) of 0.289 and a relative viability ([1]; first compound 0.3162 µM) of 0.316. It also gave a relative viability ([1]; first compound 1 µM) of 0.321, a relative viability ([2]; first compound 0.01 µM) of 0.509 and a relative viability ([2]; first compound 0.03162 µM) of 0.577. It also gave a relative viability ([2]; first compound 0.1 µM) of 0.503, a relative viability ([2]; first compound 0.3162 µM) of 0.589 and a relative viability ([2]; first compound 1 µM) of 0.729.

LOU-NH91 was tested, and the relative viability (BAM7 + Olaparib; first compound 0.5 µM) was 0.949, the relative viability (BAM7 + Olaparib; first compound 5 µM) was 0.955 and the relative viability (BAM7 + Olaparib; first compound 15.81 µM) was 0.894. The relative viability (BAM7 + Olaparib; first compound 50 µM) was 0.893, the relative viability (BAM7 + Pemetrexed; first compound 0.5 µM) was 0.347 and the relative viability (BAM7 + Pemetrexed; first compound 5 µM) was 0.436. The relative viability (BAM7 + Pemetrexed; first compound 15.81 µM) was 0.392, the relative viability (BAM7 + Pemetrexed; first compound 50 µM) was 0.346 and the relative viability ([1]; first compound 0.01 µM) was 0.899. For the same cell line, the relative viability ([1]; first compound 0.03162 µM) was 0.828, the relative viability ([1]; first compound 0.1 µM) was 1 and the relative viability ([1]; first compound 0.3162 µM) was 0.767. For the same cell line, the relative viability ([1]; first compound 1 µM) was 0.794, the relative viability ([2]; first compound 0.01 µM) was 0.547 and the relative viability ([2]; first compound 0.03162 µM) was 0.501. It also gave a relative viability ([2]; first compound 0.1 µM) of 0.483, a relative viability ([2]; first compound 0.3162 µM) of 0.504 and a relative viability ([2]; first compound 1 µM) of 0.526.

LU99A was tested, and the relative viability (BAM7 + Olaparib; first compound 0.5 µM) was 0.272, the relative viability (BAM7 + Olaparib; first compound 5 µM) was 0.257 and the relative viability (BAM7 + Olaparib; first compound 15.81 µM) was 0.312. For the same cell line, the relative viability (BAM7 + Olaparib; first compound 50 µM) was 0.254, the relative viability (BAM7 + Pemetrexed; first compound 0.5 µM) was 0.146 and the relative viability (BAM7 + Pemetrexed; first compound 5 µM) was 0.18. The relative viability (BAM7 + Pemetrexed; first compound 15.81 µM) was 0.173, the relative viability (BAM7 + Pemetrexed; first compound 50 µM) was 0.198 and the relative viability ([1]; first compound 0.01 µM) was 0.52. It also gave a relative viability ([1]; first compound 0.03162 µM) of 0.531, a relative viability ([1]; first compound 0.1 µM) of 0.46 and a relative viability ([1]; first compound 0.3162 µM) of 0.453. It also gave a relative viability ([1]; first compound 1 µM) of 0.571, a relative viability ([2]; first compound 0.01 µM) of 0.33 and a relative viability ([2]; first compound 0.03162 µM) of 0.353. For the same cell line, the relative viability ([2]; first compound 0.1 µM) was 0.294, the relative viability ([2]; first compound 0.3162 µM) was 0.293 and the relative viability ([2]; first compound 1 µM) was 0.324.

Source: the supplement of paper PMC10307832
